Laboratory results reported in ChEMBL document CHEMBL3991601, “The target landscape of clinical kinase drugs” (Science, 2017).
Activity calls are given as the source filed them. Rule as the data show it, for most assays here: actives have a measured Kd and inactives only a lower limit.

Columns and labels:
[1] = target: Mitogen-activated protein kinase 1 (Homo sapiens, UniProt P28482)
[2] = target: T1, Tyrosine-protein kinase Tec (Homo sapiens, UniProt P42680)
T1 sequence (P42680 whole entry): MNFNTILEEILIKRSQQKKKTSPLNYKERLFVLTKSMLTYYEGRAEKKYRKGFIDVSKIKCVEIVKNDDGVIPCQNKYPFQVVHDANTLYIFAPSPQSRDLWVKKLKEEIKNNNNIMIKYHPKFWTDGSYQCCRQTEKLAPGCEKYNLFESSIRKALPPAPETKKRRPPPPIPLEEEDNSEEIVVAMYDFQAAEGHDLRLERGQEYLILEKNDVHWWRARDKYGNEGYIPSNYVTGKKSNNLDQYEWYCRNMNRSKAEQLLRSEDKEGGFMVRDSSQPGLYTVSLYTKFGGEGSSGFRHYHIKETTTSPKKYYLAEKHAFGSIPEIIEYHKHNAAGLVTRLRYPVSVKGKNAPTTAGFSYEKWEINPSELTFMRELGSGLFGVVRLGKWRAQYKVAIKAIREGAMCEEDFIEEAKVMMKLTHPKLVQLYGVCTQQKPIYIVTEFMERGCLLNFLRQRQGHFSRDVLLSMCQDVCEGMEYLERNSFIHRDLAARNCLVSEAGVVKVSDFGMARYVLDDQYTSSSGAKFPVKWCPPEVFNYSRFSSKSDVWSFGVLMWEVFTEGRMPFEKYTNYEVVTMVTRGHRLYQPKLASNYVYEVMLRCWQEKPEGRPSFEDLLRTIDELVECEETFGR

[3] = target: T2, Serine/threonine-protein kinase PLK4 (Homo sapiens, UniProt O00444)
T2 sequence (O00444 whole entry): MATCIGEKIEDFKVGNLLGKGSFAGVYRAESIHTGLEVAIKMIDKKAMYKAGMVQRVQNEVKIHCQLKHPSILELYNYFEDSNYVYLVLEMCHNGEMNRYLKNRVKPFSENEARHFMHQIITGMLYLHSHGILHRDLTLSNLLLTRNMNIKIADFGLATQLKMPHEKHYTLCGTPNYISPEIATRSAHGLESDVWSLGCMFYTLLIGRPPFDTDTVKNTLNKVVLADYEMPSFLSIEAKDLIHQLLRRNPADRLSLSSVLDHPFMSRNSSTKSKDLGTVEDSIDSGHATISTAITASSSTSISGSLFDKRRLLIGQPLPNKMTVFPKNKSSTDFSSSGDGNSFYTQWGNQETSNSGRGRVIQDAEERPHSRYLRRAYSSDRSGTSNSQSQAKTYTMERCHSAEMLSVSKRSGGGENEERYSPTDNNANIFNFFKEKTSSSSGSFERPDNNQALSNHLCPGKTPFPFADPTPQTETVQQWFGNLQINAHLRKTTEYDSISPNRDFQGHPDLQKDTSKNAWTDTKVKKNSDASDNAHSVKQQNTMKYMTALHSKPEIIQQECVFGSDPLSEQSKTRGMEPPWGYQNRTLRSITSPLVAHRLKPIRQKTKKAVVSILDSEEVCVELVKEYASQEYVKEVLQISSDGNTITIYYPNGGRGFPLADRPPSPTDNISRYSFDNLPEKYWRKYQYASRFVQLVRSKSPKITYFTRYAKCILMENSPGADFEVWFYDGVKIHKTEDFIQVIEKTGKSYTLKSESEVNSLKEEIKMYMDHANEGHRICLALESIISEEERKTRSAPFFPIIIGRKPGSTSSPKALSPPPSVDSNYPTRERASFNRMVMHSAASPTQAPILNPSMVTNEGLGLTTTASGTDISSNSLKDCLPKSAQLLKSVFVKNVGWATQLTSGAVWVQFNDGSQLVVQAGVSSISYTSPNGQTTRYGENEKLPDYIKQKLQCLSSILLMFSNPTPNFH

[4] = target: T3, Interleukin-1 receptor-associated kinase 3 (Homo sapiens, UniProt Q9Y616)
T3 sequence (Q9Y616 whole entry): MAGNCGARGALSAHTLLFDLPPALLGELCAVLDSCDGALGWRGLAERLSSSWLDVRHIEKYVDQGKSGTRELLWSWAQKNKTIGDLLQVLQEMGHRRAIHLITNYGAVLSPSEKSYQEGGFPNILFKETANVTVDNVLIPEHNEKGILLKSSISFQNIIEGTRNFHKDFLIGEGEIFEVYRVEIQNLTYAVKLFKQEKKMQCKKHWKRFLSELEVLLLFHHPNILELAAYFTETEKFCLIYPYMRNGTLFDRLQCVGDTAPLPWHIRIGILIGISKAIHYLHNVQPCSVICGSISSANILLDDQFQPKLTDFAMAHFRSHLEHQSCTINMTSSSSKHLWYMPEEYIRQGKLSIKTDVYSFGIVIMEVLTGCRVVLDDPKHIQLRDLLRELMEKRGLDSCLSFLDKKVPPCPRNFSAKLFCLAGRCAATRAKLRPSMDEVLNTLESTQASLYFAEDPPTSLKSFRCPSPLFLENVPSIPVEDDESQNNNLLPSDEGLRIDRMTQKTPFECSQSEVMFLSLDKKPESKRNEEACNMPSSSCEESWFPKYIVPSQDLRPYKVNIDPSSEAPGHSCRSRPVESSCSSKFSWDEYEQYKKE

Focal adhesion kinase 1 = Focal adhesion kinase 1 (Homo sapiens, UniProt Q05397)
Focal adhesion kinase 1, sequence (Q05397 whole entry): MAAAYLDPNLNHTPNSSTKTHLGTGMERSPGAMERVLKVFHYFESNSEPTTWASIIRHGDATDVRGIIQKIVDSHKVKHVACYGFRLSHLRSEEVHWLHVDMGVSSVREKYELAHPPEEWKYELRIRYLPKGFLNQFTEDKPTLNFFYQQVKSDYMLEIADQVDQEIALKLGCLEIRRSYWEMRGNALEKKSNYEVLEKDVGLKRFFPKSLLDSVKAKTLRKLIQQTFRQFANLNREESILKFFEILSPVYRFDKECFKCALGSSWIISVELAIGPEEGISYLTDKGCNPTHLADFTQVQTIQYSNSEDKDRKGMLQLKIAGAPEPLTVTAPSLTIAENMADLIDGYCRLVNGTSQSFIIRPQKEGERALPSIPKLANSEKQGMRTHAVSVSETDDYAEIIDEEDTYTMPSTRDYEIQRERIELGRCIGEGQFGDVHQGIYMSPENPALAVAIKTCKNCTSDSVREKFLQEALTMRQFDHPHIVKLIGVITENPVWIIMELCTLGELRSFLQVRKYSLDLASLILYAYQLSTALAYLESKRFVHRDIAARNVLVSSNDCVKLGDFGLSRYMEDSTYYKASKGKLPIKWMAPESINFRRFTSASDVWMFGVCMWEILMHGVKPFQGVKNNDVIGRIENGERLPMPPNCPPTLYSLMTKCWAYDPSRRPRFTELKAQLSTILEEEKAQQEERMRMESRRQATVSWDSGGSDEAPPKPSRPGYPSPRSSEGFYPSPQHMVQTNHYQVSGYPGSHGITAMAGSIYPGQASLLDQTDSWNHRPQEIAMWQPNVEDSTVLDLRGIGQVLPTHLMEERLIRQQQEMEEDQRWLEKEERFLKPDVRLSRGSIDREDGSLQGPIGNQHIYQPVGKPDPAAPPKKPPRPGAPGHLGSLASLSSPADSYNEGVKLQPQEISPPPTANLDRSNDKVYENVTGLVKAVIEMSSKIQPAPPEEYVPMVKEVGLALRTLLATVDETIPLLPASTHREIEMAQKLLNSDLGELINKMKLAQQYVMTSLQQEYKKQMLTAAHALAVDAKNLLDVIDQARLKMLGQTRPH

[5] = target: Protein-tyrosine kinase 2-beta (Homo sapiens, UniProt Q14289)
Protein-tyrosine kinase 2-beta, sequence (Q14289 whole entry): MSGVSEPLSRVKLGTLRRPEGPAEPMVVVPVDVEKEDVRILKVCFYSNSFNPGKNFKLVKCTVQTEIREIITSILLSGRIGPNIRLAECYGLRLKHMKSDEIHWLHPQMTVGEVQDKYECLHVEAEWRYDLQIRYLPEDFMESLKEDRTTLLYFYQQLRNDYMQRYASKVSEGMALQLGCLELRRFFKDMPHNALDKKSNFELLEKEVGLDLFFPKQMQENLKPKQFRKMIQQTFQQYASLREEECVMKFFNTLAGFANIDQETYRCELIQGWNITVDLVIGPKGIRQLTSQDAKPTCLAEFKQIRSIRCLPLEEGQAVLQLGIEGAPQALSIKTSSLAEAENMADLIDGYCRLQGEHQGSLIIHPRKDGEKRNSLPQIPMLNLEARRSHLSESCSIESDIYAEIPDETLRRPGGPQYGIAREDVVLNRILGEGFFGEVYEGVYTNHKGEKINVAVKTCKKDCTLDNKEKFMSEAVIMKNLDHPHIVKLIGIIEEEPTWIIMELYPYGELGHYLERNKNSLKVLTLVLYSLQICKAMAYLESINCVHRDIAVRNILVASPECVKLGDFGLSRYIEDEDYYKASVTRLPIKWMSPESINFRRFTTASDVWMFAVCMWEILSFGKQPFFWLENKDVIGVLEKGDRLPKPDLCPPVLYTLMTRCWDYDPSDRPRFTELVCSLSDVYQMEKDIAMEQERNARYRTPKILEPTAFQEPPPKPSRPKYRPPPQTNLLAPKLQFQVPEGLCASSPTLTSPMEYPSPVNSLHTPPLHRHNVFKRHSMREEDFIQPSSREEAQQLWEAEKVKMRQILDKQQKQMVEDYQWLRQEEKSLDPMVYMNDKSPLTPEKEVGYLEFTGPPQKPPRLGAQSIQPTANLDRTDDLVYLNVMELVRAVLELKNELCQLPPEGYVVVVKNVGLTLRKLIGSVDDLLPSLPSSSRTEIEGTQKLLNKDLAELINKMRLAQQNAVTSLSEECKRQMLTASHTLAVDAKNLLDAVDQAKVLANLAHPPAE

[6] = target: Cyclin-dependent kinase 5 (Homo sapiens, UniProt Q00535)
Cyclin-dependent kinase 5, sequence (Q00535 whole entry): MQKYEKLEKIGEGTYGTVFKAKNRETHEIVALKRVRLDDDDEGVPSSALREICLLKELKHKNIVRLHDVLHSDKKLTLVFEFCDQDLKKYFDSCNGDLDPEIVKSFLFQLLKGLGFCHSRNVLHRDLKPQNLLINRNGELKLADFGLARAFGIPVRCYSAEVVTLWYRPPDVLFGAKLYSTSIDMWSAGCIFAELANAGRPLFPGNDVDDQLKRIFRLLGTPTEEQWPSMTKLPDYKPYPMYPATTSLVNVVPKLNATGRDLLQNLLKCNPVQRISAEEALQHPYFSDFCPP

[7] = target: 5'-AMP-activated protein kinase catalytic subunit alpha-1 (Homo sapiens, UniProt Q13131)
5'-AMP-activated protein kinase catalytic subunit alpha-1, sequence (Q13131 whole entry): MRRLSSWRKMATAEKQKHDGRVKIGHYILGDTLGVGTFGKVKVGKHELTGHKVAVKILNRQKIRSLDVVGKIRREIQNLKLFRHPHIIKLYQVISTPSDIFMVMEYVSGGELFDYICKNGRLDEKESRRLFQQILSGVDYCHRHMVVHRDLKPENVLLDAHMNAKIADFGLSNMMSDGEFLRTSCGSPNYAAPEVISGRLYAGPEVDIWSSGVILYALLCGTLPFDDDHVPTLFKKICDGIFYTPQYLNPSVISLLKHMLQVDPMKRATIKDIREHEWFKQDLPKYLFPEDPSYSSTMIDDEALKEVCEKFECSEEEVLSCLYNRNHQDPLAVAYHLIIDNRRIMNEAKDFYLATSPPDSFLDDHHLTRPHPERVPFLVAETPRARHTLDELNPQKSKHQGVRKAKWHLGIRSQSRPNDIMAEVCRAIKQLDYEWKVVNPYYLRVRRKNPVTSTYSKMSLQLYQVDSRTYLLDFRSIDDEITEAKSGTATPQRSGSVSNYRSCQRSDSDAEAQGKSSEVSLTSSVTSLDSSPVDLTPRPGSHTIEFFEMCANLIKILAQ

[8] = target: Mitogen-activated protein kinase kinase kinase 1 (Homo sapiens, UniProt Q13233)
Mitogen-activated protein kinase kinase kinase 1, sequence (Q13233 whole entry): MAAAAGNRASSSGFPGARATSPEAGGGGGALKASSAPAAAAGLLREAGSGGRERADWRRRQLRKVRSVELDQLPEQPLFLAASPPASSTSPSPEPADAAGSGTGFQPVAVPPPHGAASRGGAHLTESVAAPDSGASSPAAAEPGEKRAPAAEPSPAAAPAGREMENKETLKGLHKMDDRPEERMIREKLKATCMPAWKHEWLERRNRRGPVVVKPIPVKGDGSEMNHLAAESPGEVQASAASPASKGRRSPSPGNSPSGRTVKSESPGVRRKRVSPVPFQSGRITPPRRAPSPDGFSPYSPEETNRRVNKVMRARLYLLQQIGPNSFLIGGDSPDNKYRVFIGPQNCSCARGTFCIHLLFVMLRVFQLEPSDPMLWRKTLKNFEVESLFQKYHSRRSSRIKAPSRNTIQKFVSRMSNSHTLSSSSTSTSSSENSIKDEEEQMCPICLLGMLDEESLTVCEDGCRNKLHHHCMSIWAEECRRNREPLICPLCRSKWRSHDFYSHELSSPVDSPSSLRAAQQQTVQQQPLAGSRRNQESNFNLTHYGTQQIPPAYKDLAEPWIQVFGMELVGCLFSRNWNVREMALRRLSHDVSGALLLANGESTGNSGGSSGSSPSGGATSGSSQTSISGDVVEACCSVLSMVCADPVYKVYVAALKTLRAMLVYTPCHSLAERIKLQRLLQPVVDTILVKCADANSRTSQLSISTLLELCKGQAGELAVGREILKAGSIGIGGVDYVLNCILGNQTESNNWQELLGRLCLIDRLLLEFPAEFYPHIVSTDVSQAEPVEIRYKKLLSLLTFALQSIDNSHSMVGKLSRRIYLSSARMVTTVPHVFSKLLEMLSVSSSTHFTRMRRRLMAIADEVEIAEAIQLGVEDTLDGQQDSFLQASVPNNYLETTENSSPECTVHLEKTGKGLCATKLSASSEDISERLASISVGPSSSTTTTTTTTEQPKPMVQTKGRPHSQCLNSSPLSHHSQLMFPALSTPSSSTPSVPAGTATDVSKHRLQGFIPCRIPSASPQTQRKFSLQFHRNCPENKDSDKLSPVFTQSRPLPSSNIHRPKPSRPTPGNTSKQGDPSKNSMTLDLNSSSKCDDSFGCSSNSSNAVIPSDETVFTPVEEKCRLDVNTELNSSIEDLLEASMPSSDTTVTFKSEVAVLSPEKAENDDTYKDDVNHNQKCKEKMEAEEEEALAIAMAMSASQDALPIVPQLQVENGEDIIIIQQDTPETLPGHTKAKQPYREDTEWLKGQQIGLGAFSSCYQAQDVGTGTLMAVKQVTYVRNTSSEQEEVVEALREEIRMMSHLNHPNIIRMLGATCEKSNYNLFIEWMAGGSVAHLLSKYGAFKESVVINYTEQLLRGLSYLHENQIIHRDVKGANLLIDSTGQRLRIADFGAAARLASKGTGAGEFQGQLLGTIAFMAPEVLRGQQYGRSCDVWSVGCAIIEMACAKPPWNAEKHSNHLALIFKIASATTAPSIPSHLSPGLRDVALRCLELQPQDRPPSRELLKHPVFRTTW
Also: in the data inactive means no Kd found up to 30 µM.

Mitogen-activated protein kinase 1, sequence (P28482 whole entry): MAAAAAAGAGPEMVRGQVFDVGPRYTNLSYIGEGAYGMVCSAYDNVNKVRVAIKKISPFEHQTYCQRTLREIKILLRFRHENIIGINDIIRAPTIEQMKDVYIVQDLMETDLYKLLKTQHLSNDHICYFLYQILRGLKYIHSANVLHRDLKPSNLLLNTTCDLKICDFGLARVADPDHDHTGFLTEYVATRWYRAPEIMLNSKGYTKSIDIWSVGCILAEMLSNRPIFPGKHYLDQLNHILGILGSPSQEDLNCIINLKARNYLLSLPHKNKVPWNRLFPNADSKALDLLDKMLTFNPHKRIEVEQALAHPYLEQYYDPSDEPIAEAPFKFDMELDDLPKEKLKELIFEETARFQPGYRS

Row | Kd [1] | Kd [2] | Kd [3] | Kd [4] | Kd (Focal adhesion kinase 1) | Kd [5] | Kd [6] | Kd [7] | Kd [8] | Structure (SMILES)
1 | > 30 µM (inactive) | > 30 µM (inactive) | > 30 µM (inactive) | > 30 µM (inactive) | > 30 µM (inactive) | > 30 µM (inactive) | > 30 µM (inactive) | > 30 µM (inactive) | > 30 µM (inactive) | COc1cc2nccc(Oc3ccc(NC(=O)Nc4cc(C)on4)c(Cl)c3)c2cc1OC [TIVOZANIB]
2 | > 30 µM (inactive) | > 30 µM (inactive) | > 30 µM (inactive) | > 30 µM (inactive) | > 30 µM (inactive) | > 30 µM (inactive) | > 30 µM (inactive) | > 30 µM (inactive) | > 30 µM (inactive) | Cn1cc(-c2ccc(F)c(C(F)(F)F)c2)nc1C1CCN(c2ncnc3[nH]ncc23)CC1 [LY-2584702]
3 | > 30 µM (inactive) | > 30 µM (inactive) | 0.908 µM (active) | > 30 µM (inactive) | > 30 µM (inactive) | > 30 µM (inactive) | > 30 µM (inactive) | > 30 µM (inactive) | > 30 µM (inactive) | O=C(Nc1ccc(-c2ccnc(Nc3ccc(N4CCOCC4)cc3)n2)cc1)C1CCCN1 (stereo not given) [XL-019]
4 | > 30 µM (inactive) | > 30 µM (inactive) | > 30 µM (inactive) | > 30 µM (inactive) | > 30 µM (inactive) | > 30 µM (inactive) | > 30 µM (inactive) | > 30 µM (inactive) | > 30 µM (inactive) | COc1cc(OC)c(/C=C/S(=O)(=O)Cc2ccc(OC)c(NCC(=O)O)c2)c(OC)c1 [RIGOSERTIB]
5 | > 30 µM (inactive) | > 30 µM (inactive) | > 30 µM (inactive) | 0.026 µM (active) | > 30 µM (inactive) | > 30 µM (inactive) | > 30 µM (inactive) | > 30 µM (inactive) | > 30 µM (inactive) | CN1CCC(CNc2ccc3ncc(-c4cccc(OC(F)(F)F)c4)n3n2)CC1 [SGI-1776]
6 | > 30 µM (inactive) | > 30 µM (inactive) | > 30 µM (inactive) | > 30 µM (inactive) | > 30 µM (inactive) | > 30 µM (inactive) | > 30 µM (inactive) | > 30 µM (inactive) | > 30 µM (inactive) | Cc1c(F)cc(C(=O)NC2CC2)cc1-c1ccc(C(=O)NCC(C)(C)C)cn1 [LOSMAPIMOD]

The remaining lines, values behind:

Row | Structure (SMILES) | Kd [1] | Kd [2] | Kd [3] | Kd [4] | Kd (Focal adhesion kinase 1) | Kd [5] | Kd [6] | Kd [7] | Kd [8]
7 | Cc1ccc(NC(=O)c2ccc(CN3CC[C@H](N(C)C)C3)c(C(F)(F)F)c2)cc1Nc1nccc(-c2cncnc2)n1 [BAFETINIB] | > 30 µM (inactive) | > 30 µM (inactive) | > 30 µM (inactive) | > 30 µM (inactive) | > 30 µM (inactive) | > 30 µM (inactive) | > 30 µM (inactive) | > 30 µM (inactive) | > 30 µM (inactive)
8 | O=C1NC(=O)/C(=C/c2ccc3nccc(-c4ccncc4)c3c2)S1 [GSK-1059615] | > 30 µM (inactive) | > 30 µM (inactive) | > 30 µM (inactive) | 8.67 µM (active) | > 30 µM (inactive) | > 30 µM (inactive) | > 30 µM (inactive) | > 30 µM (inactive) | > 30 µM (inactive)
9 | CCS(=O)(=O)N1CC(CC#N)(n2cc(-c3ncnc4[nH]ccc34)cn2)C1 [BARICITINIB] | > 30 µM (inactive) | > 30 µM (inactive) | > 30 µM (inactive) | > 30 µM (inactive) | > 30 µM (inactive) | > 30 µM (inactive) | > 30 µM (inactive) | > 30 µM (inactive) | 1.89 µM (active)
10 | COc1cc(CCc2cc(NC(=O)c3ccc(N4C[C@@H](C)N[C@@H](C)C4)cc3)n[nH]2)cc(OC)c1 [AZD-4547] | > 30 µM (inactive) | > 30 µM (inactive) | > 30 µM (inactive) | > 30 µM (inactive) | > 30 µM (inactive) | > 30 µM (inactive) | > 30 µM (inactive) | > 30 µM (inactive) | > 30 µM (inactive)
